Test results: US8415391B2, “3.2.1-bicyclo-octene and -octane compounds” (International Flavors & Fragrances Inc., priority 2010, dated 2013)

Legend:
[1] = Sweat malodor coverage, panel sniff test with isovaleric acid model; design: species or system human; details: compound 10% in solvent; 1 h equilibration in 8 oz jar; 15-18 panelists; scale 1 (No Coverage) to 5 (Excellent Coverage)
Method: (§1) It is known that the perspirative malodors of human body, particularly sweat, are associated with the production of several unpleasant smelling organic acids, particularly isovaleric acid (“IVA”). The commercial sample of this malodorous material (commercially available at Sigma-Aldrich Inc.) was thus used as a model compound to assess the effectiveness of sweat malodor counteractants. The mold/mildew malodor model was prepared based on applicant's proprietary formulations for assessing the effectiveness of mold/mildew malodor counteractants.
(§2) Two aluminum dishes were placed in an 8 oz glass jar. A malodor material was pipetted into one aluminum dish, and a compound of the present invention diluted in a solvent (10%) or a solvent alone control was pipetted into the other aluminum dish. The jar was then capped and the samples were allowed to equilibrate for one hour before the testing.
(§3) Test samples were presented in a blind and random order to 15-18 internal panelists (consisting of men/women with an age range of 25 to 55). However, different odor samples were arranged in an alternative order (for example, sweat, mold/mildew, sweat, mold/mildew, and etc.).
(§4) The panelists were instructed to take the steps of i) sniff jars containing only the malodor materials for familiarization prior to the testing; ii) uncap a jar; iii) place their noses at a distance of about 3-4 inches above the opening; iv) take short sniffs for 3 seconds; and v) provide a rank of the malodor coverage using an intensity scale of 1 to 5, where 1 represents “No Coverage”, 3 represents “Moderate Coverage”, and 5 represents “Excellent Coverage”. The means for each sample was then calculated.

[2] = Mold/mildew malodor coverage, panel sniff test with proprietary malodor model; design: species or system human; details: compound 10% in solvent; 1 h equilibration in 8 oz jar; 15-18 panelists; scale 1 (No Coverage) to 5 (Excellent Coverage)
Method: as §1, §2, §3, §4

Vapor pressure = type: physicochemical

## CC(=O)OC1CC2(C)CCC(C2)C1C (stereo not drawn) [Structure IV, acetic acid 1,4-dimethyl-bicyclo[3.2.1]oct-3-yl ester]
[1]
  Sweat Malodor, mean rank of malodor coverage: 3.09
[2]
  Mold/Mildew Malodor, mean rank of malodor coverage: 2.96
Vapor pressure
  Vapor Pressure: 1091 µg/L

## CC1=CCC2(C)CCC1C2 (stereo not drawn) [Structure I, 2,5-dimethyl-bicyclo[3.2.1]oct-2-ene]
[1]
  Sweat Malodor, mean rank of malodor coverage: 3.90
[2]
  Mold/Mildew Malodor, mean rank of malodor coverage: 3.32
Vapor pressure
  Vapor Pressure: 28652 µg/L

## COC(=O)OC1CC2(C)CCC(C2)C1C (stereo not drawn) [Structure V, carbonic acid 1,4-dimethyl-bicyclo[3.2.1]oct-3-yl ester methyl ester]
[1]
  Sweat Malodor, mean rank of malodor coverage: 2.42
[2]
  Mold/Mildew Malodor, mean rank of malodor coverage: 2.49
Vapor pressure
  Vapor Pressure: 406 µg/L
